# Reference: ChEMBL document CHEMBL1201862, “PubChem BioAssay data set” (2004)
# Activity calls are given as the source filed them.
# Key:
# [1] = target: T1, High affinity choline transporter 1 (Homo sapiens, UniProt Q9GZV3); experiment: human choline transporter potentiators, potency – cell-based, 10-point CRC, membrane potential dye, dose response (AID 602376); assay type: functional
# T1 sequence (Q9GZV3 whole entry): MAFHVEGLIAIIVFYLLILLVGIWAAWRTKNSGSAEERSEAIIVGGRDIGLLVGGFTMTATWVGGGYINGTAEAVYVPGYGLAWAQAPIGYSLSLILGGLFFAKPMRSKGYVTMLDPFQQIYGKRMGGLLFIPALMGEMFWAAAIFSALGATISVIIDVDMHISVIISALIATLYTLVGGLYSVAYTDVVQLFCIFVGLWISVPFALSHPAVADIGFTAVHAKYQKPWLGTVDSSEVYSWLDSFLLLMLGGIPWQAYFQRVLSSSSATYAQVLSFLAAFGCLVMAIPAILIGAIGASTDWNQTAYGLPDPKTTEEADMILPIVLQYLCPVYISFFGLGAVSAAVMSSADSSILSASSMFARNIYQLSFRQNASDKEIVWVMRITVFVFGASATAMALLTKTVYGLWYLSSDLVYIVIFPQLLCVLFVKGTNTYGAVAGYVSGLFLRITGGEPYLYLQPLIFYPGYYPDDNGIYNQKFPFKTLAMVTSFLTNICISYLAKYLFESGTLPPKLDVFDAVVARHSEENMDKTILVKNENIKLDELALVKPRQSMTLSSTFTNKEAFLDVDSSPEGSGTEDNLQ
# [2] = target: T2, Ubiquitin-conjugating enzyme E2 N (Homo sapiens, UniProt P61088); assay type: functional;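 also: Dose-response confirmation in a TR-FRET assay detecting UBC13-driven polyubiquitin chain formation, inhibition measured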
# T2 sequence (P61088 whole entry): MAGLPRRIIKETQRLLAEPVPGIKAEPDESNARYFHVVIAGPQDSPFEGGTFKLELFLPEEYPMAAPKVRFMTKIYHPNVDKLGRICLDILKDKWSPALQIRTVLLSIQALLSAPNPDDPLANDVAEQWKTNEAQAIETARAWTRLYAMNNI
# [3] = target: T3, DNA dC->dU-editing enzyme APOBEC-3G (Homo sapiens, UniProt Q9HC16); experiment: Dose Response confirmation of small molecule APOBEC3G DNA Deaminase Inhibitors via a fluorescence-based single-stranded DNA deaminase assay. [Related pubchem assays (depositor defined):AID493012, AID493028]; assay type: functional
# [4] = target: Luciferin 4-monooxygenase (Photinus pyralis, UniProt P08659); experiment: inhibition of purified Photinus pyralis luciferase – biochemical, luminescence, dose response (AID 1891)
# [5] = target: T4, DNA dC->dU-editing enzyme APOBEC-3A (Homo sapiens, UniProt P31941); experiment: SAR analysis of small molecule inhibitors of APOBEC3A DNA Deaminase via a fluorescence-based single-stranded DNA deaminase assay - Set 2.; assay type: functional; details: read-out: IC50_Mean
# [6] = target: T5, Mannose-6-phosphate isomerase (Homo sapiens, UniProt P34949); experiment: phosphomannose isomerase inhibition – biochemical, fluorescence intensity, confirmation (AID 1535)
# T5 sequence (P34949 whole entry): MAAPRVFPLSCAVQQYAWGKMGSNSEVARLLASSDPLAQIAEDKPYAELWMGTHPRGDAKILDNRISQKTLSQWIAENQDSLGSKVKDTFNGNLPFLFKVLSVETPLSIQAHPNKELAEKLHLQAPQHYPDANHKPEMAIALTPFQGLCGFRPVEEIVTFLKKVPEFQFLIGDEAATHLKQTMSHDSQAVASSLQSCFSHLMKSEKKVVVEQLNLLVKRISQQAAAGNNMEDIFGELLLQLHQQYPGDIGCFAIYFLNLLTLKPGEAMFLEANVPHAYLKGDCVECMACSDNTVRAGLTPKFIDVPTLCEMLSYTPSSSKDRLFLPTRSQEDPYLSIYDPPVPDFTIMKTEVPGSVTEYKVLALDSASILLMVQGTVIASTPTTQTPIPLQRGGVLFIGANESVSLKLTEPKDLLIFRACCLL
# [7] = target: T3, DNA dC->dU-editing enzyme APOBEC-3G; experiment: inhibition of APOBEC3G ssDNA deamination – biochemical, fluorescence, single-stranded DNA substrate, SAR follow-up (AID 602136); assay type: functional; details: read-out: IC50_Mean
# [8] = target: T4, DNA dC->dU-editing enzyme APOBEC-3A; experiment: A3A deaminase inhibition for selectivity – biochemical, dose response (AID 504722); assay type: functional
# [9] = target: FAD-linked sulfhydryl oxidase ALR (Homo sapiens, UniProt P55789); experiment: ALR-catalysed DTT oxidation blockers – biochemical, H2O2 detection, luminescence, cherry-pick, dose response (AID 493248)
# [10] = target: T6, Leucine aminopeptidase (Plasmodium falciparum 3D7, UniProt Q8IL11); experiment: P. falciparum M17LAP inhibitors, primary screen, biochemical, fluorogenic H-Leu-NHMec substrate, 1536-well (AID 1619); assay type: functional
# T6 sequence (Q8IL11 whole entry): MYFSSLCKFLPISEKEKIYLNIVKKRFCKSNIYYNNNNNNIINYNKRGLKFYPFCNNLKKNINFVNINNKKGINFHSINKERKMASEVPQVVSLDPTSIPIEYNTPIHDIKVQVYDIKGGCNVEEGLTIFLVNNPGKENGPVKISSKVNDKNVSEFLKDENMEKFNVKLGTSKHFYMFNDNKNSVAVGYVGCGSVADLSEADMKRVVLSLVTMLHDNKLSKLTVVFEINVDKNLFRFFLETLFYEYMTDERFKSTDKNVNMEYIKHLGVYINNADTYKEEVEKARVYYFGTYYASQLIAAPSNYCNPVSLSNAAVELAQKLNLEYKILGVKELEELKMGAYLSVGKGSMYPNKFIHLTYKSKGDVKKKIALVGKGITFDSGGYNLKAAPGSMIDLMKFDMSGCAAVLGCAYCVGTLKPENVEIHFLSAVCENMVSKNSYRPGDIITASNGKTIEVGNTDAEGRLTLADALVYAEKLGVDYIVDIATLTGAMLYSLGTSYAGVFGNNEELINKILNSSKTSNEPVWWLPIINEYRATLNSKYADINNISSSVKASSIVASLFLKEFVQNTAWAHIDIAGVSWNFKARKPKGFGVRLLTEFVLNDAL
# [11] = target: T3, DNA dC->dU-editing enzyme APOBEC-3G; experiment: SAR analysis of small molecule inhibitors of APOBEC3G DNA Deaminase via a fluorescence-based single-stranded DNA deaminase assay - Set 2.; assay type: functional; details: read-out: IC50_Mean
# [12] = target: Phosphomannomutase 2 (Homo sapiens, UniProt O15305); experiment: Counter screen SAR assay for PMM2 inhibitors via a fluorescence intensity assay. [Related pubchem assays (depositor defined):AID1545, AID1574]
# [13] = target: T4, DNA dC->dU-editing enzyme APOBEC-3A; experiment: SAR analysis of small molecule inhibitors of APOBEC3A DNA Deaminase via a fluorescence-based single-stranded DNA deaminase assay.; assay type: functional; details: read-out: IC50_Mean
# [14] = target: Vascular endothelial growth factor receptor 3 (Homo sapiens, UniProt P35916); assay type: functional;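 also: value from a kinome-wide profiling panel, with FLT4 as the panel member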
# [15] = target: Serine/threonine-protein kinase PLK1 (Homo sapiens, UniProt P53350); assay type: functional;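 also: PLK1 measured as one member of a kinome-wide profiling panel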
# [16] = target: Dual specificity tyrosine-phosphorylation-regulated kinase 1A (Homo sapiens, UniProt Q13627); assay type: functional;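 also: measured against DYRK1A as one member of a broad kinome profiling panel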
# [17] = target: Serine/threonine-protein kinase Nek2 (Homo sapiens, UniProt P51955); assay type: functional
# [18] = target: Serine/threonine-protein kinase PLK3 (Homo sapiens, UniProt Q9H4B4); assay type: functional
# [19] = target: Ribosomal protein S6 kinase beta-1 (Homo sapiens, UniProt P23443); assay type: functional;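 also: measured as one member of a kinome-wide profiling panel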
# [20] = target: Multidrug resistance protein CDR1 (Candida albicans, UniProt P43071); experiment: inhibition of Nile Red efflux via Candida CDR1 – S. cerevisiae AD1-8u, singleplex, Cherry Pick1 hits, dose response (AID 588606); assay type: functional
# [21] = target: Mitogen-activated protein kinase kinase kinase kinase 4 (Homo sapiens, UniProt O95819); assay type: functional
# [22] = target: Serine/threonine-protein kinase D3 (Homo sapiens, UniProt O94806); assay type: functional;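 also: determined within a kinase panel screen, with PRKCN as the panel member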
# [23] = target: Casein kinase I isoform delta (Homo sapiens, UniProt P48730); assay type: functional;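 also: measured as one member (CSNK1D) of a kinome panel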
# [24] = target: Serine/threonine-protein kinase PAK 4 (Homo sapiens, UniProt O96013); assay type: functional;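 also: value obtained within a kinome profiling panel in which PAK4 was one of the panel members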
# [25] = target: Focal adhesion kinase 1 (Homo sapiens, UniProt Q05397); assay type: functional;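 also: measured as one member of a kinome panel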
# [26] = target: Casein kinase I isoform alpha (Homo sapiens, UniProt P48729); assay type: functional
# [27] = target: Activin receptor type-1 (Homo sapiens, UniProt Q04771); experiment: Navigating the Kinome. Panel member name: ACVR1; assay type: functional
# [28] = target: Macrophage colony-stimulating factor 1 receptor (Homo sapiens, UniProt P07333); assay type: functional;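 also: value comes from the Navigating the Kinome screening panel, CSF1R member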
# [29] = target: Inhibitor of nuclear factor kappa-B kinase subunit epsilon (Homo sapiens, UniProt Q14164); experiment: Navigating the Kinome. Panel member name: IKBKE; assay type: functional
# [30] = target: Mitogen-activated protein kinase kinase kinase kinase 2 (Homo sapiens, UniProt Q12851); assay type: functional;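 also: measured as one member of a kinome-wide kinase panel, with MAP4K2 as the panel entry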
# [31] = target: Dual specificity tyrosine-phosphorylation-regulated kinase 1B (Homo sapiens, UniProt Q9Y463); experiment: Navigating the Kinome. Panel member name: DYRK1B; assay type: functional
# [32] = target: Mitogen-activated protein kinase 8 (Homo sapiens, UniProt P45983); assay type: functional;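 also: value comes from one member of a kinome-wide kinase profiling panel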
# [33] = target: Dual specificity protein kinase CLK4 (Homo sapiens, UniProt Q9HAZ1); assay type: functional
# [34] = target: Tyrosine-protein kinase receptor TYRO3 (Homo sapiens, UniProt Q06418); assay type: functional;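 also: TYRO3 value obtained as one member of a kinome-wide profiling panel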
# [35] = tested on: INS1; experiment: beta-cell survival under cytokine stress – INS-1E, ATP luminescence, dry powder, dose response (AID 488844); assay type: functional, cell-based; details: Rattus norvegicus
# [36] = tested on: INS1; experiment: INS-1E mitochondrial potential rescue under cytokines – cell-based, JC-1 fluorescence ratio, dry powder, dose response (AID 488931); assay type: functional; details: Rattus norvegicus
# [37] = tested on: INS1; experiment: suppression of NO production in INS-1E cells – cell-based, Griess absorbance, dry powder, set 2, dose response (AID 488868); assay type: functional; details: Rattus norvegicus
# [38] = suppression of NO production in INS-1E cells – cell-based, Griess absorbance, dry powder, set 3, dose response (AID 488870); assay type: functional; details: Rattus norvegicus
# [39] = target: Tyrosine-protein kinase ABL1 (Homo sapiens, UniProt P00519); assay type: functional
# [40] = target: Aurora kinase B (Homo sapiens, UniProt Q96GD4); assay type: functional
# [41] = target: Platelet-derived growth factor receptor alpha (Homo sapiens, UniProt P16234); experiment: Navigating the Kinome. Panel member name: PDGFRA; assay type: functional
# [42] = target: Tyrosine-protein kinase BTK (Homo sapiens, UniProt Q06187); assay type: functional
# [43] = target: Cyclin-dependent kinase 7 (Homo sapiens, UniProt P50613); assay type: functional;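 also: value comes from a kinome-wide kinase profiling panel in which CDK7 is one member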
# [44] = target: 72 kDa type IV collagenase (Homo sapiens, UniProt P08253); experiment: Dose Response validation of uHTS RPN11 inhibitor hits using a MMP-2 Fluorescence assay.; assay type: functional
# [45] = target: 26S proteasome non-ATPase regulatory subunit 14 (Homo sapiens, UniProt O00487); experiment: inhibition of proteasome subunit RPN11 – biochemical, fluorescence polarization, uHTS hits, confirmation (AID 602368); assay type: functional
# [46] = target: Prothrombin (Bos taurus, UniProt P00735); experiment: thrombin protease inhibitors – biochemical, fluorescence polarization, uHTS hits, dose response (AID 602369); assay type: functional
# T3 sequence (Q9HC16 whole entry): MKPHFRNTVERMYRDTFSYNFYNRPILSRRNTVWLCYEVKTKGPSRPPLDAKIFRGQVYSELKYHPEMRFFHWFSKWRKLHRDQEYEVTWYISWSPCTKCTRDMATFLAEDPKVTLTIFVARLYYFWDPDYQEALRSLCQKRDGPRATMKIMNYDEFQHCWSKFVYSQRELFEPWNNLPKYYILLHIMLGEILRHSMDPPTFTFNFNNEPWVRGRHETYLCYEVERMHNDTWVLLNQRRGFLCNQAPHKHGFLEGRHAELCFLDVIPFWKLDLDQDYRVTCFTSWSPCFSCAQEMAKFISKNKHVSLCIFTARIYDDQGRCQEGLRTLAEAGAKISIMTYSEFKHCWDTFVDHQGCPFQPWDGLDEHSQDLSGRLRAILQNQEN
# T4 sequence (P31941 whole entry): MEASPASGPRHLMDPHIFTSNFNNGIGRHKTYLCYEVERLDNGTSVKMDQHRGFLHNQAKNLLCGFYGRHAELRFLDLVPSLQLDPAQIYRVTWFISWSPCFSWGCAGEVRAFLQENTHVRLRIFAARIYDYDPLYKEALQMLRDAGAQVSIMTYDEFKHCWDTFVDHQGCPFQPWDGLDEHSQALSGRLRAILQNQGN
# Sequence of Dual specificity protein kinase CLK4 (Q9HAZ1 whole entry): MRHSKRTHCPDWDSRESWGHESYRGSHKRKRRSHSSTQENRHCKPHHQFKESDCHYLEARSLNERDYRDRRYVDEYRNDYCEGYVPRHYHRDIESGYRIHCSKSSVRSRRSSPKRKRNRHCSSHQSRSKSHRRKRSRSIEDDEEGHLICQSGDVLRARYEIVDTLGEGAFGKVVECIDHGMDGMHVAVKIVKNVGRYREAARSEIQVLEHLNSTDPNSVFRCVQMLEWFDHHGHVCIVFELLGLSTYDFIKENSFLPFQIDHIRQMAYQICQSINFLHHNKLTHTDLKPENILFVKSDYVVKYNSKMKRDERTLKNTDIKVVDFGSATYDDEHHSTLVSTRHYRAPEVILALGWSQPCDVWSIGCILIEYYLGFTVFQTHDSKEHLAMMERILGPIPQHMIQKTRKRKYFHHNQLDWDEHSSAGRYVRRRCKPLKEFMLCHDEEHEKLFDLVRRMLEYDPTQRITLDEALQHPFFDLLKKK
# Sequence of Casein kinase I isoform alpha (P48729 whole entry, canonical isoform): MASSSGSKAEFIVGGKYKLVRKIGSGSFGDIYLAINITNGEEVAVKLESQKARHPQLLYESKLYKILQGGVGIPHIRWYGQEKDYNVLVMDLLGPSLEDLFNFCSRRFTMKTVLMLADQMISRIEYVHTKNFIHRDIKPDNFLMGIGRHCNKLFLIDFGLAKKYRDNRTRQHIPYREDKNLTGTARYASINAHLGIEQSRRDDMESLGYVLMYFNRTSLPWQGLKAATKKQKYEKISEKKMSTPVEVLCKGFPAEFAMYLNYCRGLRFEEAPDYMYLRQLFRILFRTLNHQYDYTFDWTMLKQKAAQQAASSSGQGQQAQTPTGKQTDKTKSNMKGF
# Sequence of Mitogen-activated protein kinase kinase kinase kinase 4 (O95819 whole entry): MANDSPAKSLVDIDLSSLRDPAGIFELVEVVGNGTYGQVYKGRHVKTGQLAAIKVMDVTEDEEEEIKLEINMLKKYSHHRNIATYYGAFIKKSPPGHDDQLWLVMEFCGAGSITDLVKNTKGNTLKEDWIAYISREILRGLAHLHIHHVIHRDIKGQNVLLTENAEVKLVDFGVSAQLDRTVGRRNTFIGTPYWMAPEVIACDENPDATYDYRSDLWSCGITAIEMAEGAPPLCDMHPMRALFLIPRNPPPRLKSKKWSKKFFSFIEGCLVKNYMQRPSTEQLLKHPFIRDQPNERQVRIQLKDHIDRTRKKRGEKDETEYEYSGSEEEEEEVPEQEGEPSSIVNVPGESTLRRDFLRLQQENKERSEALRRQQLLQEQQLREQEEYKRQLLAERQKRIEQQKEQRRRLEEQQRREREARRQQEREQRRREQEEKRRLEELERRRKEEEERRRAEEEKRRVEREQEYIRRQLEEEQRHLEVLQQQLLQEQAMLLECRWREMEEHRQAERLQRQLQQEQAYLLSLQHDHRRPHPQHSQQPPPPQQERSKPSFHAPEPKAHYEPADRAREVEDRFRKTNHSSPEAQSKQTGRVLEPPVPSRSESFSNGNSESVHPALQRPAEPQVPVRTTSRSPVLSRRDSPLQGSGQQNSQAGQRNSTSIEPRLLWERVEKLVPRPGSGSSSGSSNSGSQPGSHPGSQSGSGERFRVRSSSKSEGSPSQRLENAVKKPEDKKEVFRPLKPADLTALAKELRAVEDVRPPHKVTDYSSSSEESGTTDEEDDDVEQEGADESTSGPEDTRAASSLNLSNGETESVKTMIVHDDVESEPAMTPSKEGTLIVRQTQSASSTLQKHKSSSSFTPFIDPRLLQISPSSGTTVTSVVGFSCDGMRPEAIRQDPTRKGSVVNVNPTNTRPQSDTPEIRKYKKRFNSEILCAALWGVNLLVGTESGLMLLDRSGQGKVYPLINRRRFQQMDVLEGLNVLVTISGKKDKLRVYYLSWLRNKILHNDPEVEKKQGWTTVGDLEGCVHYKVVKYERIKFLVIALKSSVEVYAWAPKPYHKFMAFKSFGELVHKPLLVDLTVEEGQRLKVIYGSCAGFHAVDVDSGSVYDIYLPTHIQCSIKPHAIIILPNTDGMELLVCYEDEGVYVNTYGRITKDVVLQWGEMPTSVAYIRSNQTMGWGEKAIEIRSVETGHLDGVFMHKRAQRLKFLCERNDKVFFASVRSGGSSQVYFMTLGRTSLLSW
# Sequence of Dual specificity tyrosine-phosphorylation-regulated kinase 1B (Q9Y463 whole entry): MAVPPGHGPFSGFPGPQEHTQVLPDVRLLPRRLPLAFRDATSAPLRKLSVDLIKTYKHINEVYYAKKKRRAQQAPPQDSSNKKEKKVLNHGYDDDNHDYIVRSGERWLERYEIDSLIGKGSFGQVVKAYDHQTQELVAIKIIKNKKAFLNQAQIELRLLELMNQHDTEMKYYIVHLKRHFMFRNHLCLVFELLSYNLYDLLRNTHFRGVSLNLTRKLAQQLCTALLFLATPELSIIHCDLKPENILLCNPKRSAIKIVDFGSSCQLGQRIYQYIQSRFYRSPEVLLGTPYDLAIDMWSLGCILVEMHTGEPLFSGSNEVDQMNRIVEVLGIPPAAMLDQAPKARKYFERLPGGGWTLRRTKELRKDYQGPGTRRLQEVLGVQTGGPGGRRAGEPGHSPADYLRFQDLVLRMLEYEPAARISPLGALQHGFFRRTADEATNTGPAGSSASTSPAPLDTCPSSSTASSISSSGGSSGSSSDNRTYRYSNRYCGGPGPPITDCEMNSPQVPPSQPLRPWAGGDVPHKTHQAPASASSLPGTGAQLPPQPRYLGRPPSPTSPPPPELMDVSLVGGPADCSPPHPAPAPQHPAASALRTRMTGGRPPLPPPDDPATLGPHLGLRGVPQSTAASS
# Sequence of Mitogen-activated protein kinase kinase kinase kinase 2 (Q12851 whole entry): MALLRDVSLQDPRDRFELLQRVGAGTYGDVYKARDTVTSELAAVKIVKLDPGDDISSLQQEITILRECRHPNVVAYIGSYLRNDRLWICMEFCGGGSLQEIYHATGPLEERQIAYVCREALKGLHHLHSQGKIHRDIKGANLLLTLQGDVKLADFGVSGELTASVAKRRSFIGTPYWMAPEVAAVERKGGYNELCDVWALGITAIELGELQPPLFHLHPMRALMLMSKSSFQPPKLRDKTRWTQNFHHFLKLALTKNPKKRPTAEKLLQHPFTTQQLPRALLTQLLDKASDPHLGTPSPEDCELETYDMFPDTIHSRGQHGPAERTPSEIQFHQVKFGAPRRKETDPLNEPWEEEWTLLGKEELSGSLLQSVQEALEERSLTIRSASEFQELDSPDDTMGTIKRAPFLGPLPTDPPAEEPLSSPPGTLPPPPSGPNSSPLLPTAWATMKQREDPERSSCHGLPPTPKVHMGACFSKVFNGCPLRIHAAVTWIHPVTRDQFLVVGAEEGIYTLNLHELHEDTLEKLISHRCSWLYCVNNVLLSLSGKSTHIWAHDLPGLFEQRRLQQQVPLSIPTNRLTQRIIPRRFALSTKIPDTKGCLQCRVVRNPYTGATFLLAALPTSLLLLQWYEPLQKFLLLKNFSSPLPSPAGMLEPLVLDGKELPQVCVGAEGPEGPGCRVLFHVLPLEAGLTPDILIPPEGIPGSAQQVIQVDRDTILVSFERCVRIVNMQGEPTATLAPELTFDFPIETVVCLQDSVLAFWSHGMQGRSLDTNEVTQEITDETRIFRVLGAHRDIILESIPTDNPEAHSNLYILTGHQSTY
# Sequence of Serine/threonine-protein kinase D3 (O94806 whole entry, canonical isoform): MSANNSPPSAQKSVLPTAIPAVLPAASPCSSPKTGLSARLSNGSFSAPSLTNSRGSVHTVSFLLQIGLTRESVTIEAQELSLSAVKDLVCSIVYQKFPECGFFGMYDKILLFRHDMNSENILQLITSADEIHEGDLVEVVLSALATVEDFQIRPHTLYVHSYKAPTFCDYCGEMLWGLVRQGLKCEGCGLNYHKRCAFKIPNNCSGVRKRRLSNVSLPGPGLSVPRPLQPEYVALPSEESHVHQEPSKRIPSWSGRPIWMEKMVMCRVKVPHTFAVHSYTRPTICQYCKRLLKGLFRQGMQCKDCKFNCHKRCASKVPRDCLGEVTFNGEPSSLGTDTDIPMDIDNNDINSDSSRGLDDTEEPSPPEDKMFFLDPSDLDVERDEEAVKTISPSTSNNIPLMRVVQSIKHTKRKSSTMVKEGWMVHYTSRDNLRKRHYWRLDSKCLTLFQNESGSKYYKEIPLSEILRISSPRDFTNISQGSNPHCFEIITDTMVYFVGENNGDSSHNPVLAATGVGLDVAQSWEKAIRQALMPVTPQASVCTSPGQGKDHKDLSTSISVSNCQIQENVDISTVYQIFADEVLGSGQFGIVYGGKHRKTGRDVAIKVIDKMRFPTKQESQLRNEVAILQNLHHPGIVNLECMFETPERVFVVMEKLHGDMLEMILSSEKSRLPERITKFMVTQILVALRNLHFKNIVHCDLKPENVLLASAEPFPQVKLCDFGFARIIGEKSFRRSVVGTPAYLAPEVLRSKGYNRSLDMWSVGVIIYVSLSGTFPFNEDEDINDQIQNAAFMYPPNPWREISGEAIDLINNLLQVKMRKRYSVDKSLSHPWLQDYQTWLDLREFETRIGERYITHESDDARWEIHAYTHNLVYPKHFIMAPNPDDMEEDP
compound,measurement,setting,value
O=C(CCC1CCCCC1)NCCN1C2=NC[C@H](Cc3ccccc3)N2C[C@H]1Cc1ccc(O)cc1,EC50,[1],13.4 µM (active)
same,IC50,[2],> 20 µM (inactive)
COc1ccc(-c2nnc(S)[nH]2)cc1,IC50,[3],1.95 µM (active)
same,EC50,[4],> 112 µM (not active)
same,IC50,[5],> 99 µM (inactive)
same,IC50,[6],50.1 µM (active)
same,IC50,[7],1.19 µM (active)
same,IC50,[8],> 100 µM (inactive)
same,AC50,[9],0.008 µM (active)
same,IC50,[10],39.5 µM (active)
same,IC50,[11],1.22 µM (active)
same,IC50,[12],> 100 µM (inactive)
same,IC50,[13],> 99 µM (inactive)
CCn1c(=C(C#N)C(=O)O)sc(=CNc2ccccc2)c1=O,Ki,[14],1.58 µM (active)
same,Ki,[15],1.58 µM (active)
same,Ki,[16],1.58 µM (active)
same,Ki,[17],5.01 µM (active)
same,Ki,[18],5.01 µM (active)
same,Ki,[19],6.31 µM (active)
Cc1ccc(OCc2cc(C(=O)NCC(C)(C)N3CCOCC3)no2)cc1C,EC50,[20],0.001 µM (active)
CC(C)(O)c1nnc2ccc(-c3c(-c4ccc(F)cc4F)nc4occn34)nn12,Ki,[21],3.16 µM (active)
same,Ki,[22],5.01 µM (active)
same,Ki,[23],2.51 µM (active)
Nc1nc2ncc(-c3ccccc3)cn2n1,Ki,[24],25.1 µM (active)
same,Ki,[25],100 µM (active)
same,Ki,[26],25.1 µM (active)
same,Ki,[27],39.8 µM (active)
same,Ki,[21],50.1 µM (active)
same,Ki,[28],100 µM (active)
same,Ki,[16],50.1 µM (active)
same,Ki,[29],63.1 µM (active)
same,Ki,[30],79.4 µM (active)
same,Ki,[31],31.6 µM (active)
same,Ki,[32],50.1 µM (active)
same,Ki,[33],15.8 µM (active)
same,Ki,[34],50.1 µM (active)
C[C@@H]1CN([C@@H](C)CO)C(=O)c2cccc(NC(=O)Nc3cccc(Cl)c3Cl)c2O[C@H]1CN(C)S(=O)(=O)c1ccc2c(c1)OCCO2,AC50,[35],15.2 µM (active)
same,AC50,[36],71.3 µM (active)
same,AC50,[37],29.3 µM (active)
same,AC50,[38],68.8 µM (active)
Clc1cc2nnc(-c3ccccc3)n2cn1,Ki,[26],39.8 µM (active)
same,Ki,[39],63.1 µM (active)
same,Ki,[40],25.1 µM (active)
same,Ki,[41],15.8 µM (active)
same,Ki,[42],50.1 µM (active)
same,Ki,[30],12.6 µM (active)
same,Ki,[31],79.4 µM (active)
same,Ki,[33],63.1 µM (active)
same,Ki,[43],20 µM (active)
CCc1c(O)n(C2CCCCC2)c(SCC(=O)Nc2ccc(C)cc2)nc1=O,IC50,[44],20.6 µM (active)
same,IC50,[45],38.3 µM (active)
same,IC50,[46],45.4 µM (active)
